Test results taken from patent US20230295152A1 (SENDA BIOSCIENCES, INC., priority 2019, published 2023).
Read-outs that look alike come from different tables or passages of the source.

Columns and labels:
[1] = test system: CT26 cells implanted subcutaneously into Balb/c mice; assay: CT26 syngeneic colon cancer model, AhR antagonist with PD-L1 antibody; type: in vivo
[2] = as above; type: in vivo; details: female, Balb/c, mouse, in vivo, po; CT26 model, dose 10 mg/kg
[3] = In vivo PK study in male CD1 mice; details: for AUC(0-t): read-out: AUCLast Mean
Protocol: The studies were conducted in male Sprague Dawley rats, three rats per group, or male CD1 mice, three mice per group. Compounds were dosed 1.0 mg/Kg i.v. (vehicle ethanol: % PEG400 in deionized water, in proportions suitable for dosing a clear solution) and 3.0 mg/kg or 10 mg/kg p.o. (vehicle: 1% methyl cellulose: 1,500 cP in DI water (w/v)). A11 animals had free access to food and water. Rat i.v. PK time points: Plasma: 0.083, 0.25, 0.5, 1, 2, 4, 8 and 24 h; Rat p.o. PK time points: Plasma: 0.25, 0.5, 1, 2, 4, 8 and 24 h. Mouse i.v. PK time points: Plasma: 0.083, 0.25, 0.5, 1, 2, 4, 8, 24, and 48 h; Mouse p.o. PK time points: Plasma: 0.25, 0.5, 1, 2, 4, 8, 24, and 48 h. Concentrations of compound in the plasma samples were analyzed using a LC-MS/MS method. WinNonlin (Phoenix™, version 6.1) or other similar software was used for pharmacokinetic calculations.

[4] = test system: CYP1A1 mRNA levels in HT26; assay: CYP1A1 Gene Expression Assay, mouse CRC cell line HT26; type: cell-based
Protocol: Human and mouse colorectal cancer (CRC) cell lines, HT29 and HT26 respectively, American Type Culture Collection (ATCC) are plated in a sterile tissue culture treated 96-well plate (ThermoFisher) at 8.0×10^5 cells per well, and grown overnight at 37° C., 5% CO2 in DMEM complete (Gibco) in order to achieve confluence. After the incubation medium is aspirated off the cell monolayers, tissues are then washed with 200 μL of warmed PBS solution, and subsequently 190 μL of pre-warmed growth medium is added to each well. AhR antagonist of interest are diluted at a 20×concentration in growth medium containing 2% DMSO, and 10 μL of compound solutions are added to respective wells in triplicate. After 1 hr, AHR activating ligand, such as TCDD, kynurenine, ITE (2-(1H-indole-3-ylcarbonyl)-4-thiazolecarboxylic methyl ester), VAF347, BNF (beta-naphthoflavone), FICZ (6-formylindolo(3,2-b) carbazole or other AHR ligands, is added with or without AHR antagonist for 24 hours, after which media will be removed and stored at −80 C for later cytokine analysis. At the end of the incubation, medium is aspirated off the CRC cells, and the cells washed with 100 μL of cold PBS solution. RNA is extracted via the TaqMan™ Gene Expression Cells-to-CT™ Kit (ThermoFisher) according to the manufacturer's protocol. The QuantStudio 6 Flex (Applied Biosciences) is used to analyze mRNA levels of CYP1A1 using GAPDH as the endogenous control. TaqMan™ probe sets for both genes are acquired from ThermoFisher. Samples are run in triplicate and data is analyzed using the QuantStudio software and reported as linear and log 2(ΔΔCT) values. Statistical analysis is performed using a two-tailed t-test comparing CYP1A1 levels in the presence of each individual compound to the vehicle negative control. […] This assay can be used to confirm the inhibitory effect of the compounds prior to testing using an in vivo model.

[5] = Liver Microsome Stability Assay, human; type: in vitro ADME; details: human liver microsomes
Protocol: Two separate experiments were performed as follows.
With Cofactors (NADPH): 25 μL of 10 mM NADPH was added to the incubations. The final concentrations of microsomes and NADPH were 0.5 mg/mL and 1 mM, respectively. The final concentration of microsomes was 0.5 mg/mL. The mixture was pre-warmed at 37° C. for 10 minutes. The reaction was started with the addition of 2.5 μL of 100 μM control compound or test compound solutions. Verapamil was used as positive control in this study. The final concentration of test compound or control compound was 1 μM. The incubation solution was incubated in water batch at 37° C. Aliquots of 25 μL were taken from the reaction solution at 0.5, 5, 15, 30 and 60 minutes. The reaction was stopped by the addition of 5 volumes of cold acetonitrile with IS (200 nM caffeine and 100 nM tolbutamide). Samples were centrifuged at 3, 220 g for 40 minutes. Aliquot of 100 μL of the supernatant was mixed with 100 μL of ultra-pure H2O and then used for LC-MS/MS analysis.
Data Analysis: All calculations were carried out using Microsoft Excel. Peak areas were determined from extracted ion chromatograms. The slope value, k, was determined by linear regression of the natural logarithm of the remaining percentage of the parent drug vs. incubation time curve.
The in vitro half-life (in vitro t1/2) was determined from the slope value:
Conversion of the in vitro t1/2 (min) into the in vitro intrinsic clearance (in vitro CLint, in μL/min/mg protein) was done using the following equation (mean of duplicate determinations): […]
The calculations of Scaled-up CLint(mL/min/kg), Predicted CLH (mL/min/kg) and EH were done using the following equation:
Scaled-up CLint=(0.693/t1/2)×(1/(microsomal protein concentration(0.5 mg/mL)))×Scaling Factors;Predicted CLH=(QH×Scaled-up CLint×fub)/(QH+Scaled-up CLint×fub);EH=Predicted CLH/QH
where QH is the hepatic blood flow (mL/min/kg) (Table 32), • fub is the fraction of unbound drug in plasma which is assumed to be 1.
“+++” indicates a Clint value less than 10 mL/min/Kg, […] indicates a Clint between 10 and 20 mL/min/Kg, and “+” indicates a Clint above 20 mL/min/Kg.

[6] = male, CD1, mouse, plasma, mice, 1 mg/kg IV
[7] = male, CD1, mouse, plasma, mice, 1 mg/kg IV, read-out: T1/2 Mean (converted)
[8] = male, CD1, mouse, plasma, mice, 10 mg/kg PO
[9] = male, CD1, mouse, plasma, mice, 10 mg/kg PO, read-out: Bioavailability
[10] = male, CD1, mouse, plasma, mice, 10 mg/kg PO, read-out: T1/2 Mean (converted)

Compound | C0 [3, 6] [ng/mL] | AUC(0-t) [3, 6] [ng·h/mL] | half-life [3, 7] [h] | Cmax [3, 8] [ng/mL] | AUC(0-t) [3, 8] [ng·h/mL] | bioavailability [3, 9] [%] | CI Mean ([3]; mice, 1 mg/kg IV) [mL/min/kg] | Tmax [3, 8] [h] | Human liver microsome clearance [5] | other results
C[C@@H](CO)n1cnc2c(-c3cccnc3)nc(-c3ccc(C(F)(F)F)cn3)cc2c1=O [Compound 46, (S)-3-(1-hydroxypropan-2-yl)-8-(pyridin-3-yl)-6-(5-(trifluoromethyl)pyridin-2-yl)pyrido[3,4-d]pyrimidin-4(3H)-one] | 470 | 8400 | 15.7 | 2370 | 67700 | 80.6 | 29.3 | – | – | Cmin ([1]; CT26 model, dose 10 mg/kg): 12,350 nm; tumor volume, coadministration with PD-L1 antibody ([1]; FIG. 12, 10 mg/kg p.o. once a day over 14 days with anti-PD-L1 antibody 10 mg/kg IP every 3 days): reduction in tumor volume; tumor weight upon termination of study, coadministration with PD-L1 antibody ([1]; FIG. 13, 10 mg/kg p.o. once a day over 14 days with anti-PD-L1 antibody 10 mg/kg IP every 3 days): reduction in tumor weight; Cmax [2]: 17.3 µM; Mouse CL (% Qh) ([3]; in vivo DMPK profile, mouse): 2 % Qh; half-life [3, 10]: 8 h; clearance ([3]; male, CD1, plasma, intravenous, 1 mg/kg, in vivo DMPK profile, mouse, read-out: Mouse CL): 1.8 mL/min/kg; half-life ([3]; male, CD1, plasma, intravenous, 1 mg/kg, in vivo DMPK profile, mouse, read-out: Mouse T1/2 (converted)): 15.7 h; Vd ([3]; male, CD1, plasma, intravenous, 1 mg/kg, in vivo DMPK profile, mouse, read-out: Mouse Vss): 2.3 L/kg; bioavailability ([3]; male, CD1, plasma, oral, 10 mg/kg, in vivo DMPK profile, mouse, read-out: Mouse % F): 80.6%; IC50 ([4]; Mus musculus): 18.5 nM; Mouse CYP1A1 % eff ([4]; mouse, efficacy given with the IC50): ~96%
Cn1cc(-c2nc(-c3ccc(C(F)(F)F)nc3)cc3c(=O)n(CC(C)(C)O)cnc23)cn1 [Compound 60] | 350 | 6520 | 11.8 | 1120 | 29800 | 45.7 | 40.3 | 8 | – | –
CC(C)(O)Cn1cnc2c(-c3cccnc3)nc(-c3ccc(Cl)cc3)cc2c1=O [Compound 18] | 333 | 6770 | 20.7 | 1310 | 45800 | 67.6 | 33.7 | 6.67 | +++ (“+++” indicates a Clint value less than 10 mL/min/Kg) | half-life [3, 10]: 23.4 h
Cn1cc(-c2nc(-c3ccc(C(F)(F)F)cn3)cc3c(=O)n(CC(C)(C)O)cnc23)cn1 [Compound 103, 3-(2-hydroxy-2-methylpropyl)-8-(1-methyl-1H-pyrazol-4-yl)-6-(5-(trifluoromethyl)pyridin-2-yl)pyrido[3,4-d]pyrimidin-4(3H)-one] | 349 | 10400 | 69.5 | 152 | 6060 | 5.82 | 10.7 | 13.3 | – | –
C[C@H](n1cnc2c(-c3cccnc3)nc(-c3cccnc3)cc2c1=O)C(C)(C)O [Compound 34] | – | – | – | – | – | – | – | – | +++ (“+++” indicates a Clint value less than 10 mL/min/Kg) | –
CC(C)(O)Cn1cnc2c(-c3cccnc3)nc(-c3ccc(C(F)(F)F)cn3)cc2c1=O [Compound 105] | 412 | 11300 | 55.9 | 2350 | 96100 | 85 | 11.4 | 12 | – | half-life [3, 10]: 48.5 h
C[C@@H](CO)n1cnc2c(-c3cnn(C)c3)nc(-c3ccc(OC(F)(F)F)cc3)cc2c1=O [Compound 25] | – | – | – | – | – | – | – | – | +++ (“+++” indicates a Clint value less than 10 mL/min/Kg) | –
C[C@@H](CO)n1cnc2c(-c3cccnc3)nc(-c3ccc(C(F)(F)F)cc3)cc2c1=O [Compound 23] | – | – | – | – | – | – | – | – | +++ (“+++” indicates a Clint value less than 10 mL/min/Kg) | –
C[C@@H](CO)n1cnc2c(-c3cccnc3)nc(-c3ccc(C(F)(F)F)nc3)cc2c1=O [Compound 12] | – | – | – | – | – | – | – | – | +++ (“+++” indicates a Clint value less than 10 mL/min/Kg) | –
Cn1cc(-c2nc(-c3ccc(Cl)cc3)cc3c(=O)n(CC(C)(C)O)cnc23)cn1 [Compound 21] | – | – | – | – | – | – | – | – | +++ (“+++” indicates a Clint value less than 10 mL/min/Kg) | –
C[C@@H](CO)n1cnc2c(-c3cnn(C)c3)nc(-c3ccc(Cl)cc3)cc2c1=O [Compound 27] | – | – | – | – | – | – | – | – | +++ (“+++” indicates a Clint value less than 10 mL/min/Kg) | –
CC(C)(O)Cn1cnc2c(-c3cccnc3)nc(-c3ccc(C(F)(F)F)cc3)cc2c1=O [Compound 16] | – | – | – | – | – | – | – | – | +++ (“+++” indicates a Clint value less than 10 mL/min/Kg) | –
C[C@@H](CO)n1cnc2c(-c3cccnc3)nc(-c3ccc(OC(F)(F)F)cc3)cc2c1=O [Compound 22] | – | – | – | – | – | – | – | – | +++ (“+++” indicates a Clint value less than 10 mL/min/Kg) | –
Cc1ccc(-c2cc3c(=O)n([C@@H](C)CO)cnc3c(-c3cccnc3)n2)cc1 [Compound 17, (S)-3-(1-hydroxypropan-2-yl)-8-(pyridin-3-yl)-6-(p-tolyl)pyrido[3,4-d]pyrimidin-4(3H)-one] | 601 | 231 | 0.504 | 349 | 497 | 21.6 | 1200 | 0.417 | + (“+” indicates a Clint above 20 mL/min/Kg) | AUC(0-inf) ([3]; male, CD1, mouse, plasma, mice, 10 mg/kg PO, read-out: AUCInf Mean): 519 ng·h/mL; half-life [3, 10]: 1.15 h
C[C@@H](CO)n1cnc2c(-c3cccc(F)c3)nc(-c3ccc(Cl)cc3)cc2c1=O [Compound 7] | – | – | – | – | – | – | – | – | +++ (“+++” indicates a Clint value less than 10 mL/min/Kg) | tumor volume, coadministration with PD-L1 antibody ([1]; FIG. 2, 3 mg/kg p.o. once a day over 14 days with anti-PD-L1 antibody 10 mg/kg IP every 3 days, p=0.0039 (Mann-Whitney)): reduction in tumor volume; tumor weight upon termination of study, coadministration with PD-L1 antibody ([1]; FIG. 3, 3 mg/kg p.o. once a day over 14 days with anti-PD-L1 antibody 10 mg/kg IP every 3 days, p=0.041 (Mann-Whitney)): reduction in tumor weight
